# Reference: patent US20240270741A1 (Cogent Biosciences, Inc., priority 2023, published 2024)
# Target: FGFR2 (Homo sapiens, UniProt P21802)
# Assay: FGFR wild type enzyme assay (HTRF KinEASE-TK), FGFR2
# Conditions: Enz FGFR2 (nM)
# FGFR2, sequence (P21802 399-821 limits assumed): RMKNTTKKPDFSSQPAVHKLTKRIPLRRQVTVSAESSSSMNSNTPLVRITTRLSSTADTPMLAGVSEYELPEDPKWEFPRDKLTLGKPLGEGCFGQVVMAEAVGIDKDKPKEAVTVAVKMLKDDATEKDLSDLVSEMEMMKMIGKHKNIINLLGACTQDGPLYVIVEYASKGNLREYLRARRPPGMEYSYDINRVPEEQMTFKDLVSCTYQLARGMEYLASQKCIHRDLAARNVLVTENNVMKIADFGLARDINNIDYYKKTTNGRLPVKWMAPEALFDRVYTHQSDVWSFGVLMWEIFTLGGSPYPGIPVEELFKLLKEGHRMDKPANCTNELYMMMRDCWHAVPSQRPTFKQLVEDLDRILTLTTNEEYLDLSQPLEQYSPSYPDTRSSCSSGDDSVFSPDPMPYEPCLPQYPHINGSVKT
row,Compound,IC50 [nM]
1,"Cc1c(-c2cc(SCCOC(C)C)c3c(C#N)cnn3c2)cnn1[C@H]1CCCNC1 [Example 85, 4-(2-isopropoxyethylsulfanyl)-6-[5-methyl-1-[(3S)-3-piperidyl]pyrazol-4-yl]pyrazolo[1,5-a]pyridine-3-carbonitrile]",7
2,"Cc1c(-c2cc(Sc3ncccc3F)c3c(C#N)cnn3c2)cnn1[C@H]1CCCNC1 [Example 86, 4-[(3-fluoro-2-pyridyl)sulfanyl]-6-[5-methyl-1-[(3S)-3-piperidyl]pyrazol-4-yl]pyrazolo[1,5-a]pyridine-3-carbonitrile]",2
3,"CCSc1cc(-c2cnn([C@H]3CCCN(C[C@H](O)CO)C3)c2)cn2ncc(C#N)c12 [Example 87, 6-[1-[(3S)-1-[(2S)-2,3-dihydroxypropyl]-3-piperidyl]pyrazol-4-yl]-4-ethylsulfanyl-pyrazolo[1,5-a]pyridine-3-carbonitrile]",1
4,"CC(C)Sc1cc(-c2cnn([C@H]3CCCN(C[C@H](O)CO)C3)c2)cn2ncc(C#N)c12 [Example 88, 6-[1-[(3S)-1-[(2S)-2,3-dihydroxypropyl]-3-piperidyl]pyrazol-4-yl]-4-isopropylsulfanyl-pyrazolo[1,5-a]pyridine-3-carbonitrile]",1
5,"CC(C)Sc1cc(-c2cnn([C@H]3CCCN(CCO)C3)c2)cn2ncc(C#N)c12 [Example 89, 6-[1-[(3S)-1-(2-hydroxyethyl)-3-piperidyl]pyrazol-4-yl]-4-isopropylsulfanyl-pyrazolo[1,5-a]pyridine-3-carbonitrile]",1
6,"N#Cc1cnn2cc(-c3cnn(C4CCN(CCO)CC4)c3)cc(Sc3ccccn3)c12 [Example 90, 6-[1-[1-(2-hydroxyethyl)-4-piperidyl]pyrazol-4-yl]-4-(2-pyridylsulfanyl)pyrazolo[1,5-a]pyridine-3-carbonitrile]",2
7,"N#Cc1cnn2cc(-c3cnn([C@H]4CCCN(CCO)C4)c3)cc(Sc3ccccn3)c12 [Example 91, 6-[1-[(3S)-1-(2-hydroxyethyl)-3-piperidyl]pyrazol-4-yl]-4-(2-pyridylsulfanyl)pyrazolo[1,5-a]pyridine-3-carbonitrile]",2
8,"CC(C)N1CCC(n2cc(-c3cc(Sc4ccccn4)c4c(C#N)cnn4c3)cn2)CC1 [Example 92, 6-[1-(1-isopropyl-4-piperidyl)pyrazol-4-yl]-4-(2-pyridylsulfanyl)pyrazolo[1,5-a]pyridine-3-carbonitrile]",3
9,"CC(=O)N1CCC(n2cc(-c3cc(Sc4ccccn4)c4c(C#N)cnn4c3)cn2)CC1 [Example 93, 6-[1-(1-acetyl-4-piperidyl)pyrazol-4-yl]-4-(2-pyridylsulfanyl)pyrazolo [1,5-a]pyridine-3-carbonitrile]",3
10,"CN1CCC[C@H]1C(=O)N1CCC(n2cc(-c3cc(Sc4ccccn4)c4c(C#N)cnn4c3)cn2)CC1 [Example 94, 6-[1-[1-[(2S)-1-methylpyrrolidine-2-carbonyl]-4-piperidyl]pyrazol-4-yl]-4-(2-pyridylsulfanyl) pyrazolo[1,5-a]pyridine-3-carbonitrile]",2
11,"N#Cc1cnn2cc(-c3ccc(N4CCCC4)nc3)cc(Sc3ccccn3)c12 [Example 95, 4-(2-pyridylsulfanyl)-6-(6-pyrrolidin-1-yl-3-pyridyl)pyrazolo[1,5-a]pyridine-3-carbonitrile]",13
12,"N#Cc1cnn2cc(-c3ccc(OCCN4CCOCC4)nc3)cc(Sc3ccccn3)c12 [Example 96, 6-[6-(2-morpholinoethoxy)-3-pyridyl]-4-(2-pyridylsulfanyl) pyrazolo[1,5-a]pyridine-3-carbonitrile]",82
13,"N#Cc1cnn2cc(-c3cnn([C@H]4CCN(CCO)C4)c3)cc(Sc3ccccn3)c12 [Example 97, (S)-6-(1-(1-(2-hydroxyethyl)pyrrolidin-3-yl)-1H-pyrazol-4-yl)-4-(pyridin-2-ylthio)pyrazolo[1,5-a]pyridine-3-carbonitrile]",4
14,"Cc1c(-c2cc(Sc3ccccn3)c3c(C#N)cnn3c2)cnn1C1CCN(C(=O)CO)CC1 [Example 98, 6-(1-(1-(2-hydroxyacetyl)piperidin-4-yl)-5-methyl-1H-pyrazol-4-yl)-4-(pyridin-2-ylthio)pyrazolo[1,5-a]pyridine-3-carbonitrile]",7
15,"Cc1c(-c2cc(Sc3ccccn3)c3c(C#N)cnn3c2)cnn1C1CCN(C(=O)[C@@H]2CCCN2C)CC1 [Example 99, 6-(5-methyl-1-(1-(methyl-L-prolyl)piperidin-4-yl)-1H-pyrazol-4-yl)-4-(pyridin-2-ylthio)pyrazolo[1,5-a]pyridine-3-carbonitrile]",5
16,"Cc1c(-c2cc(Sc3ccccn3)c3c(C#N)cnn3c2)cnn1C1CCN(CCO)CC1 [Example 100, 6-(1-(1-(2-hydroxyethyl)piperidin-4-yl)-5-methyl-1H-pyrazol-4-yl)-4-(pyridin-2-ylthio)pyrazolo[1,5-a]pyridine-3-carbonitrile]",5
17,"Cc1c(-c2cc(Sc3ncccc3F)c3c(C#N)cnn3c2)cnn1C1CCNCC1 [Example 101, 4-[(3-fluoro-2-pyridyl)sulfanyl]-6-[5-methyl-1-(4-piperidyl)pyrazol-4-yl] pyrazolo[1,5-a]pyridine-3-carbonitrile]",2
18,"Cc1c(-c2cc(Sc3ncccc3F)c3c(C#N)cnn3c2)cnn1[C@@H]1CCCNC1 [Example 102, 4-[(3-fluoro-2-pyridyl)sulfanyl]-6-[5-methyl-1-[(3R)-3-piperidyl]pyrazol-4-yl]pyrazolo[1,5-a]pyridine-3-carbonitrile]",6

row,Compound,IC50 [nM]
1,Cc1c(-c2cc(Sc3ncccc3F)c3c(C#N)cnn3c2)cnn1[C@H]1CCNC1 [Example 103],4
2,Cc1c(-c2cc(Sc3ccccc3C#N)c3c(C#N)cnn3c2)cnn1C1CCNCC1 [Example 104],1
3,"Cc1c(-c2cc(Sc3ccccc3C#N)c3c(C#N)cnn3c2)cnn1[C@H]1CCCNC1 [Example 105, 4-(2-cyanophenyl)sulfanyl-6-[5-methyl-1-[(3S)-3-piperidyl]pyrazol-4-yl]pyrazolo[1,5-a]pyridine-3-carbonitrile]",1
4,"Cc1c(-c2cc(Sc3ccccc3C#N)c3c(C#N)cnn3c2)cnn1[C@@H]1CCNC1 [Example 106, 4-(2-cyanophenyl) sulfanyl-6-[5-methyl-1-[(3R)-pyrrolidin-3-yl]pyrazol-4-yl]pyrazolo[1,5-a]pyridine-3-carbonitrile]",2
5,"Cc1c(-c2cc(Sc3ncccc3F)c3c(C#N)cnn3c2)cnn1C1CCN(C)CC1 [Example 107, 4-[(3-fluoro-2-pyridyl)sulfanyl]-6-[5-methyl-1-(1-methyl-4-piperidyl)pyrazol-4-yl]pyrazolo[1,5-a]pyridine3-carbonitrile]",1
6,"Cc1c(-c2cc(Sc3ncccc3F)c3c(C#N)cnn3c2)cnn1C1CCN(CCO)CC1 [Example 108, 4-[(3-fluoro-2-pyridyl)sulfanyl]-6-[5-methyl-1-(1-methyl-4-piperidyl)pyrazol-4-yl]pyrazolo[1,5-a]pyridine3-carbonitrilee]",2
7,"COCCN1CCC(n2ncc(-c3cc(Sc4ncccc4F)c4c(C#N)cnn4c3)c2C)CC1 [Example 109, 4-[(3-fluoro-2-pyridyl)sulfanyl]-6-[1-[1-(2-methoxyethyl)-4-piperidyl]-5-methyl-pyrazol-4-yl]pyrazolo[1,5-a]pyridine-3-carbonitrile]",2
8,"Cc1c(-c2cc(Sc3ncc(F)cc3F)c3c(C#N)cnn3c2)cnn1C1CCNCC1 [Example 110, 4-[(3,5-difluoro-2-pyridyl)sulfanyl]-6-[5-methyl-1-(4-piperidyl)pyrazol-4-yl]pyrazolo[1,5-a]pyridine-3-carbonitrile]",3
9,"Cc1ccc(F)c(Sc2cc(-c3cnn(C4CCN(C)CC4)c3C)cn3ncc(C#N)c23)n1 [Example 111, 4-[(3-fluoro-6-methyl-2-pyridyl)sulfanyl]-6-[5-methyl-1-(1-methyl-4-piperidyl)pyrazol-4-yl]pyrazolo[1,5-a]pyridine-3-carbonitrile]",3
10,"Cc1c(-c2cc(Sc3ccccc3C#N)c3c(C#N)cnn3c2)cnn1[C@@H]1CCCNC1 [Example 112, 4-(2-cyanophenyl)sulfanyl-6-[5-methyl-1-[(3R)-3-piperidyl]pyrazol-4-yl]pyrazolo[1,5-a]pyridine-3-carbonitrile]",2
11,Cc1c(-c2cc(Sc3ncccc3F)c3c(C#N)cnn3c2)cnn1[C@H]1CC[C@@H](N(C)C)CC1 [Example 113],1
12,"Cc1nc(Sc2cc(-c3cnn(C4CCNCC4)c3C)cn3ncc(C#N)c23)ccc1F [Example 114, 4-[(5-fluoro-6-methyl-2-pyridyl)sulfanyl]-6-[5-methyl-1-(4-piperidyl)pyrazol-4-yl]pyrazolo[1,5-a]pyridine-3-carbonitrile]",3
13,"Cc1nc(Sc2cc(-c3cnn(C4CCNCC4)c3C)cn3ncc(C#N)c23)ccc1Cl [Example 115, 4-[(5-chloro-6-methyl-2-pyridyl)sulfanyl]-6-[5-methyl-1-(4-piperidyl)pyrazol-4-yl]pyrazolo[1,5-a]pyridine-3-carbonitrile]",1
14,"Cc1cc(Sc2cc(-c3cnn(C4CCNCC4)c3C)cn3ncc(C#N)c23)c(F)cn1 [Example 116, -[(5-fluoro-2-methyl-4-pyridyl)sulfanyl]-6-[5-methyl-1-(4-piperidyl)pyrazol-4-yl]pyrazolo[1,5-a]pyridine-3-carbonitrile]",45
15,"Cc1c(-c2cc(Sc3ccccc3F)c3c(C#N)cnn3c2)cnn1C1CCNCC1 [Example 118, 4-(2-fluorophenyl)sulfanyl-6-[5-methyl-1-(4-piperidyl)pyrazol-4-yl]pyrazolo[1,5-a]pyridine-3-carbonitrile]",1
16,Cc1c(-c2cc(Sc3c(F)cccc3C#N)c3c(C#N)cnn3c2)cnn1C1CCN(C)CC1 [Example 119],1
17,"Cc1c(-c2cc(Sc3cccn4cncc34)c3c(C#N)cnn3c2)cnn1C1CCN(C)CC1 [Example 120, 4-imidazo[1,5-a]pyridin-8-ylsulfany1-6-[5-methyl-1-(1-methyl-4-piperidyl)pyrazol-4-yl]pyrazolo[1,5-a]pyridine-3-carbonitrile]",1
18,Cc1nccc(Sc2cc(-c3cnn(C4CCNCC4)c3C)cn3ncc(C#N)c23)c1F [Example 121],99
